In brackets after ≈: the same amount, converted by molar mass.
What was measured:
C8166 cell line = settings: no reference given; cited from earlier work
HIV-1 IIIB = settings: no reference given; cited from earlier work
[1] = test system: primary dermal fibroblasts cell line (HDFa); experiment: MTT cytotoxicity assay, normal HDFa; format: cell-based; settings: Homo sapiens, normal cells
Text: (§1) In vitro cytotoxic potency of the investigated extracts was established using the colorimetric (MTT) assay. The three cancer cell lines involved were the human breast adenocarcinoma (MCF-7), murine myelomonocytic leukaemia (WEHI-3) and human promyelocytic leukaemia (HL-60). The three normal cell lines used were the human mammary epithelial cell line (MCF10A), primary dermal fibroblasts cell line (HDFa) and the human hepatic cell line (WRL-68). All cells were from American Type Culture Collection (ATCC) and were subcultured in tissue culture flask (75 cm) with RPMI1640 media mixed with 10% fetal bovine serum and 1% penicillin–streptomycin and kept in an incubator at 5% of CO2 saturation and 37 °C. The following solutions were prepared: crude extracts (dissolved in 1% DMSO) at various concentrations (100, 50, 25, 12.5, 6.3, 3.5, 1.5 and 0 µg/mL); and peperomin A, phytosterol mixture and standard drugs (Taxol and vinblastine) as positive controls at decreasing concentrations (50, 25, 12.5, 6.3, 3.5, 1.5, and 0 µg/mL). N,N′-diphenethyloxamide was not involved in the biological assay because of the low yield obtained. Extracts were incubated with the cancer cell lines for 72 h, and peperomin A and the phytosterol mixture were incubated for 24, 48 and 72 h. After the incubation periods, 20 µL of MTT solution (5 mg/mL) was added to each well and incubated for 4 h. To dissolve the formazan crystals formed, 100 µL of DMSO was added to each well. The IC50 values were calculated from the plot of cancer cell growth versus the concentration of extracts/compounds.

[2] = test system: human promyelocytic leukaemia (HL-60); experiment: MTT cytotoxicity assay, HL-60; format: cell-based
Text: as §1

[3] = test system: human mammary epithelial cell line (MCF10A); experiment: MTT cytotoxicity assay, normal MCF10A; format: cell-based; settings: MCF-10A, normal cells
Text: as §1

[4] = DPPH free radical scavenging assay; settings: for DPPH IC50: 30 min, 517 nm
Method: The free radical scavenging activities of the extracts, peperomin A and phytosterol mixture were estimated using the 1,1-diphenyl-2-picryl-hydrazyl (DPPH) assay. Quantitative estimation was done in 96-well ELISA plates in triplicate. Complete of 70 µL of DMSO was brought for each well followed by 100 µL of plant extract solution or isolated tested compounds. Various concentrations of each extract and peperomin A (15.6 –1,000 µg/mL) were used. Similar concentrations of ascorbic acid were used as positive control. A total of 30 µL DPPH (3.14 X 10^−3 µM) was added to each well, then the plate was allowed to stand in the dark at 25 °C for 30 min, and the absorbance was later recorded taken at 517 nm. The free radical scavenging activity was calculated using the following equation: Free radical scavenging activity%=Abs of DPPH−Abs of sample∕Abs of DPPH×100%. where Abs is absorbance. The relationship between each concentration and its scavenging percentage was plotted, and the IC50 value was calculated by interpolation. Scavenging activity was represented by IC50 values (the extract concentration that scavenges 50% of DPPH radicals).

[5] = test system: human hepatic cell line (WRL-68); experiment: MTT cytotoxicity assay, normal WRL-68; format: cell-based; settings: normal cells
Text: as §1

[6] = test system: human breast adenocarcinoma (MCF-7); experiment: MTT cytotoxicity assay, MCF-7; format: cell-based; settings: for Selectivity index: ratio of mean IC50 in normal MCF10a over mean IC50 in MCF-7: Table 4; for IC50: Homo sapiens
Text: as §1

[7] = test system: murine myelomonocytic leukaemia (WEHI-3); experiment: MTT cytotoxicity assay, WEHI-3; format: cell-based; settings: Mus musculus
Text: as §1

[8] = FRAP ferric reducing assay; settings: for FRAP: 593 nm
Method: The antioxidant power of P. blanda extracts by ferric reduction was done by preparing fresh FRAP reagent from acetate buffer (pH 3.6), a solution of 10 mM TPTZ (2,4,6-tri(2-pyridyl)-s-triazine) in 40 mM HCl and a solution of 20 mM iron (III) chloride in a ratio of 10:1:1 (%v/v) ([Brand-Williams, Cuvelier & Berset, 1995]; [Mohammadzadeh et al., 2007]; [Mothana et al., 2009]; [Salazar-Aranda et al., 2011]), butylated hydroxytoluene (BHT), and ascorbic acid were used as controls. Then, 10 µL of plant extracts, peperomin A, ferrous sulfate (standard) and the controls were added to 300 µL FRAP reagent (triplicate) in the dark and the absorbance was measured at 593 nm. A linear standard curve was constructed using […] FeSO4. The results were represented as the ratio of the concentration of iron(III) mM over the extract dry weight (g).

Row | Structure (SMILES) | cytotoxic activity against the C8166 cell line (C8166 cell line) | IC50 ([1]; 24 hr) [µg/mL] | IC50 ([1]; 48hr) [µg/mL] | IC50 ([1]; 72hr) [µg/mL] | IC50 ([2]; HL-60, 24 h, 24 hr) [µg/mL] | IC50 ([2]; HL-60, 48 h, 48hr) [µg/mL] | IC50 ([2]; HL-60, 72 h, 72hr) [µg/mL] | IC50 ([3]; 24 hr) [µg/mL] | IC50 ([3]; 48hr) [µg/mL] | IC50 ([3]; 72hr) [µg/mL] | DPPH IC50 [4] [µg/mL] | IC50 ([5]; WRL68, 24 hr) [µg/mL] | IC50 ([5]; WRL68, 48hr) [µg/mL] | IC50 ([5]; WRL68, 72hr) [µg/mL] | IC50 ([6]; MCF7, 24 h, 24 hr) [µg/mL] | IC50 ([6]; MCF7, 48 h, 48hr) [µg/mL] | IC50 ([6]; MCF7, 72 h, 72hr) [µg/mL] | IC50 ([7]; 24 hr) [µg/mL] | IC50 ([7]; 48hr) [µg/mL] | FRAP [8] | also measured
1 | COc1cc([C@@H](c2cc(OC)c3c(c2)OCO3)[C@@H]2COC(=O)[C@H]2C)cc(OC)c1OC [peperomin B] | cytotoxic activity |  |  |  |  |  |  |  |  |  |  |  |  |  |  |  |  |  |  |  | inhibitory effects on HIV-1 IIIB growth in C8166 cells (cytopathic effect, CPE) (HIV-1 IIIB): moderate inhibitory effects
2 | COc1cc(C(c2cc(OC)c3c(c2)OCO3)[C@@H]2COC(=O)[C@H]2C)cc2c1OCO2 [Peperomin A] | cytotoxic activity | > 50 | > 50 | > 50 | 43.62 ± 0.1 (≈ 105 µM) | 26.34 ± 0.26 (≈ 63.6 µM) | 16.4 ± 0.62 (≈ 39.5 µM) | > 50 | > 50 | > 50 | 536.61 ± 6.00 | > 50 | > 50 | 41.5 ± 0.54 (≈ 100 µM) | 40.7 ± 0.92 (≈ 98.3 µM) | 9.22 ± 0.28 (≈ 22.2 µM) | 5.58 ± 0.47 (≈ 13.5 µM) | 20.1 ± 0.46 (≈ 48.5 µM) | 18.7 ± 0.73 (≈ 45.1 µM) | 20.79 ± 0.66 M Fe(II)/g | inhibitory effects on HIV-1 IIIB growth in C8166 cells (cytopathic effect, CPE) (HIV-1 IIIB): moderate inhibitory effects; free radical scavenging activity (in words) [4]: weak; selectivity index values for cancer cells [6]: greater than 1; Selectivity index: ratio of mean IC50 in normal MCF10a over mean IC50 in MCF-7 ([6]; 24 hr): 1.1; Selectivity index: ratio of mean IC50 in normal MCF10a over mean IC50 in MCF-7 ([6]; 48hr): 1.3; Selectivity index: ratio of mean IC50 in normal MCF10a over mean IC50 in MCF-7 ([6]; 72hr): 7.4; IC50 ([7]; 72hr): 4.62 ± 0.03 µg/mL (≈ 11.1 µM); ferric reducing power (in words) [8]: weak
3 | CC(=O)O[C@H]1C(=O)[C@@]2(C)[C@H]([C@H](OC(=O)c3ccccc3)[C@]3(O)C[C@H](OC(=O)[C@H](O)[C@@H](NC(=O)c4ccccc4)c4ccccc4)C(C)=C1C3(C)C)[C@]1(OC(C)=O)CO[C@@H]1C[C@@H]2O [Paclitaxel] |  | > 50 | > 50 | > 50 | 12.7 ± 0.4 (≈ 14.9 µM) | 8.67 ± 0.76 (≈ 10.2 µM) | 5.13 ± 0.32 (≈ 6.01 µM) | > 50 | > 50 | > 50 |  | > 50 | > 50 | > 50 | 5.87 ± 0.19 (≈ 6.87 µM) | 4.47 ± 0.03 (≈ 5.23 µM) | 3.56 ± 0.34 (≈ 4.17 µM) | 3.16 ± 0.02 (≈ 3.7 µM) | 2.15 ± 0.02 (≈ 2.52 µM) |  | IC50 ([6]; MCF7, 72 h, 72 hr, Table 3): 3 ± 0.07 µg/mL (≈ 3.51 µM); IC50 ([7]; 72hr): 1.9 ± 0.9 µg/mL (≈ 2.23 µM)
4 | Cc1cc(C(C)(C)C)c(O)c(C(C)(C)C)c1 [BHT, butylated hydroxytoluene] |  |  |  |  |  |  |  |  |  |  | 286.64 ± 8.54 |  |  |  |  |  |  |  |  | 1738.80 ± 9.53 M Fe(II)/g | 
5 | CC[C@]1(O)C[C@@H]2CN(CCc3c([nH]c4ccccc34)[C@@](C(=O)OC)(c3cc4c(cc3OC)N(C)[C@H]3[C@@](O)(C(=O)OC)[C@H](OC(C)=O)[C@]5(CC)C=CCN6CC[C@]43[C@@H]65)C2)C1 [Vinblastine] |  | > 50 | > 50 | > 50 | 5.91 ± 0.31 (≈ 7.29 µM) | 4.81 ± 0.19 (≈ 5.93 µM) | 2.36 ± 0.08 (≈ 2.91 µM) | > 50 | > 50 | > 50 |  | > 50 | > 50 | > 50 | 14.6 ± 0.16 (≈ 18 µM) | 7.57 ± 0.5 (≈ 9.33 µM) | 5.16 ± 0.42 (≈ 6.36 µM) | 4.11 ± 0.06 (≈ 5.07 µM) | 3.56 ± 0.07 (≈ 4.39 µM) |  | IC50 ([2]; HL-60, 72 h, 72 hr, Table 3): 5 ± 0.01 µg/mL (≈ 6.17 µM); IC50 ([7]; 72 hr, Table 3): 0.57 ± 0.035 µg/mL (≈ 0.703 µM)
6 | O=C1O[C@H]([C@@H](O)CO)C(O)=C1O [VIT C, ascorbic acid] |  |  |  |  |  |  |  |  |  |  | 20.40 ± 0.50 |  |  |  |  |  |  |  |  | 2603.90 ± 10.54 M Fe(II)/g | 

From paper PMC5994333, “-Chemical profiling and biological activity of Peperomia blanda (Jacq.) Kunth” (PeerJ, 2018)
